pEC50: −log10 of the molar value.

Test [1] addresses T1, Estrogen receptor beta (Homo sapiens, UniProt Q92731).
Description: Agonist activity at full length human ERbeta receptor assessed as transcriptional activity incubated for 22 to 24 hrs by cell based luciferase reporter gene assay
The target of test [2] is T2, Estrogen receptor (Homo sapiens, UniProt P03372).
T2 sequence (P03372 whole entry): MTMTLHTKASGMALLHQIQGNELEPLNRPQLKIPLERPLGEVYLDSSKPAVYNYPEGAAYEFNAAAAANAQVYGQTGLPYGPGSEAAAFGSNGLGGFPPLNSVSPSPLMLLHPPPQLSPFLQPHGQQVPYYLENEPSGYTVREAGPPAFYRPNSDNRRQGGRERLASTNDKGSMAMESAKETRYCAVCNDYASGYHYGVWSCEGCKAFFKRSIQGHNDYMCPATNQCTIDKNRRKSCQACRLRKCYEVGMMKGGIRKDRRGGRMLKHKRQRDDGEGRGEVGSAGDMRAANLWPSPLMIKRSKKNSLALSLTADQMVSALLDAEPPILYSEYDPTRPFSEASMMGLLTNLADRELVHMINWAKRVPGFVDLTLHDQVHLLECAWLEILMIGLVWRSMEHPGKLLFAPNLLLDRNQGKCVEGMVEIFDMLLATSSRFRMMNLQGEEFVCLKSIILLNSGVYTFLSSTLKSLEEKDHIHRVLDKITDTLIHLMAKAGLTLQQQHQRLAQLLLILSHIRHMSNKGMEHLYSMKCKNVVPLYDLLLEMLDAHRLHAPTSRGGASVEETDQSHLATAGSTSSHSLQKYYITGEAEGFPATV

Test [3] concerns the target T1, Estrogen receptor beta. This is another data set of the same source.
Description: Antagonist activity at full length human ERbeta receptor assessed as inhibition of estradiol-induced activation incubated for 22 to 24 hrs by cell based luciferase reporter gene assay
Test [4] concerns the target T1, Estrogen receptor beta. The source holds these as a separate data set.
For test [5], the target named is T2, Estrogen receptor. This is another data set of the same source.
Description: Antagonist activity at full length human ERalpha receptor assessed as inhibition of estradiol-induced activation incubated for 22 to 24 hrs by cell based luciferase reporter gene assay
The target in test [6] is T3, Estrogen receptor (Homo sapiens) (UniProt P03372).
T3 sequence (whole entry): T2 sequence (P03372 whole entry)
The experiment in a line: Agonist activity at full length human ERalpha receptor assessed as transcriptional activity incubated for 22 to 24 hrs by cell based luciferase reporter gene assay relative to control. To be noted: filed as agonist.

Test [7] deals with T1, Estrogen receptor beta. The experiment in a line: Displacement of fluormone from GST-tagged ERbeta receptor LBD (unknown origin) measured after 60 mins by TR-FRET competitive binding assay relative to control. To be noted: filed as agonist. A general note: TR-FRET usually uses a lanthanide donor and a delayed reading to cut background.

T1 sequence (Q92731 whole entry): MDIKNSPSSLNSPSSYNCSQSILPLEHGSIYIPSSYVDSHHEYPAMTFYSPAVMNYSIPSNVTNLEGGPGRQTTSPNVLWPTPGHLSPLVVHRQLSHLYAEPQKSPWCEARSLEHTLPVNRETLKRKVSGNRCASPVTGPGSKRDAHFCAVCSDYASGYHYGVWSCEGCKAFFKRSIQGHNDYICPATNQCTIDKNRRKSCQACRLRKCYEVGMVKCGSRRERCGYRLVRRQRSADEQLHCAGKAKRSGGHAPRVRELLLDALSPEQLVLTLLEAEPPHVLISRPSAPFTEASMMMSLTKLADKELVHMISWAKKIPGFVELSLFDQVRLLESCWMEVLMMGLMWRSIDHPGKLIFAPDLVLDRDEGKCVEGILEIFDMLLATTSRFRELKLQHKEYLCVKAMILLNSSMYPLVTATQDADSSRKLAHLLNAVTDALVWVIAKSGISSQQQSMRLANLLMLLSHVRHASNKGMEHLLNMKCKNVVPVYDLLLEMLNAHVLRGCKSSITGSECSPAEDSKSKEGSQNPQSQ

For `C[C@]12CC[C@]3(C#N)c4ccc(O)cc4CC[C@H]3[C@@H]1CC[C@@H]2O`, the pEC50 (commonly the EC50 on a negative log10 scale, so that one unit is a factor of ten) on Estrogen receptor beta [1] was 10.54; at Estrogen receptor [2], 9.42; on Estrogen receptor beta [3] it was less than 7.60; at Estrogen receptor beta [4] it was 9.57; on Estrogen receptor [5] it was less than 5.30.

In the case of `C[C@]12CC[C@@H]3c4ccc(O)cc4CC[C@H]3[C@@H]1CC[C@@]2(O)c1cn(CCO)nn1`, the pEC50 on Estrogen receptor beta [1] was 7.80; at Estrogen receptor [2] it was 6.83; at Estrogen receptor beta [3], less than 5.00; on Estrogen receptor beta [4], 7.30; at Estrogen receptor [5] it was less than 5.00.

Take `C#C[C@]1(O)CC[C@H]2[C@@H]3CCc4cc(O)ccc4[C@@]3(C#N)CC[C@@]21C`: the pEC50 at Estrogen receptor beta [1] is 7.85; at Estrogen receptor [2], 7.66; at Estrogen receptor beta [3] it was less than 5.00; at Estrogen receptor beta [4], 7.29; at Estrogen receptor [5] it was less than 5.00.

On to `C[C@]12CC[C@@H]3c4ccc(O)cc4CC[C@H]3[C@@H]1CC[C@@]2(O)c1cn(-c2ccc(O)cc2)nn1`, for which the pEC50 on Estrogen receptor beta [1] was 9.09; at Estrogen receptor [2], 9.06; on Estrogen receptor beta [3], less than 5.00; at Estrogen receptor beta [4], 9.19; at Estrogen receptor [5] it was less than 5.00.

Consider `C[C@]12CC[C@@H]3c4ccc(O)cc4CC[C@H]3[C@@H]1CC[C@@]2(O)c1cn(-c2ccccc2)nn1`, for which the pEC50 on Estrogen receptor [2] is 8.30; at Estrogen receptor [5], less than 6.00.

With `C[C@]12CC[C@]3(C#N)c4ccc(O)cc4CC[C@H]3[C@@H]1CC[C@@]2(O)c1cn(CCO)nn1`, on Estrogen receptor beta [4], the pEC50 is 5.36.

`C[C@]12CC[C@@H]3c4ccc(O)cc4CC[C@H]3[C@@H]1CC[C@@]2(O)c1cn(-c2cccc(O)c2)nn1`: the pEC50 is 7.68 at Estrogen receptor beta [1]; 7.17 at Estrogen receptor [2]; less than 5.00 at Estrogen receptor beta [3]; 7.92 at Estrogen receptor beta [4]; less than 6.00 at Estrogen receptor [5]. Also, the Activity was 46% in test [6] and 60% at Estrogen receptor beta [7].

Turning to `C[C@]12CC[C@]3(C#N)c4ccc(O)cc4CC[C@H]3[C@@H]1CCC2=O`, the pEC50 at Estrogen receptor beta [1] is 8.05; on Estrogen receptor [2] it was 7.06; on Estrogen receptor beta [3] it was less than 5.30; on Estrogen receptor beta [4], 7.11; at Estrogen receptor [5], less than 5.00.

For the origin of these results see ChEMBL document CHEMBL4725405, “Synthesis and evaluation of 17α-triazolyl and 9α-cyano derivatives of estradiol” (Bioorg Med Chem, 2020).
